From paper PMC7878489, “Gene delivery corrects N-acetylglutamate synthase deficiency and enables insights in the physiological impact of L-arginine activation of N-acetylglutamate synthase” (Scientific Reports, 2021)

Legend:
[1] = molecular target: T1, hNAGS (human NAGS) (Homo sapiens, UniProt Q8N159); experiment: NAGS specific activity; type: biochemical
T1 construct: appears to be tetramer
T1 sequence (Q8N159 51-534): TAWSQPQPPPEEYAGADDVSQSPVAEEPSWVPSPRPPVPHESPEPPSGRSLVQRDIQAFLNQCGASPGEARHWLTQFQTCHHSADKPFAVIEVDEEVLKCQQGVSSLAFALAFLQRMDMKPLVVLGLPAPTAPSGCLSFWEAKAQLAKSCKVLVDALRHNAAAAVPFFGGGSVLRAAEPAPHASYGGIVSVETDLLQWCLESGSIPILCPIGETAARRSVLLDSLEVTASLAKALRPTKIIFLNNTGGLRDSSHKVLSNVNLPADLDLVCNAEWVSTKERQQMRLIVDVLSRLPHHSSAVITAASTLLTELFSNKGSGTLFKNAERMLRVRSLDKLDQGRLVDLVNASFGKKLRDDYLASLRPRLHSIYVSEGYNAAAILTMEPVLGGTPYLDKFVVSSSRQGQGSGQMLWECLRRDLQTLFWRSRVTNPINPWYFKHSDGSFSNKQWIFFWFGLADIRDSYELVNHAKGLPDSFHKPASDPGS

[2] = molecular target: T2, mNAGS (mouse NAGS) (Mus musculus, UniProt Q8R4H7); experiment: NAGS specific activity; type: biochemical
T2 construct: appears to be tetramer
T2 sequence (Q8R4H7 51-527): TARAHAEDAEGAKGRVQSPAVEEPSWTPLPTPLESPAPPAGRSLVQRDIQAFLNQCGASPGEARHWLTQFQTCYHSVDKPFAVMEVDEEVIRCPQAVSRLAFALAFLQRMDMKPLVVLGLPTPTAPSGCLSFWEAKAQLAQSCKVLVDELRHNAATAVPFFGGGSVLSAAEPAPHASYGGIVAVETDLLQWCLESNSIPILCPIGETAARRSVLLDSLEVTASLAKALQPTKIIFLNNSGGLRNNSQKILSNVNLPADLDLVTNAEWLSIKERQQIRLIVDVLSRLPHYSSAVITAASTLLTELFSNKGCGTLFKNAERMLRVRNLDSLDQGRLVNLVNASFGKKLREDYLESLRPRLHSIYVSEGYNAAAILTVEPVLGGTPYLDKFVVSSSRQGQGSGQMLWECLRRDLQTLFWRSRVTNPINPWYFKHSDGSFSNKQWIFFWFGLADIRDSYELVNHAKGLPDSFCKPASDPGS

CC(=O)SCCNC(=O)CCNC(=O)[C@H](O)C(C)(C)COP(=O)(O)OP(=O)(O)OC[C@H]1O[C@@H](n2cnc3c(N)ncnc32)[C@H](O)[C@@H]1OP(=O)(O)O [acetyl coenzyme A]
NAGS specific activity ([1]; co-substrate glutamate): catalyzes formation of N-acetylglutamate (NAG) from glutamate and acetyl coenzyme A
NAGS specific activity ([2]; co-substrate glutamate): catalyzes formation of N-acetylglutamate (NAG) from glutamate and acetyl coenzyme A

N[C@@H](CCC(=O)O)C(=O)O [glutamate]
NAGS specific activity ([1]; co-substrate acetyl coenzyme A): catalyzes formation of N-acetylglutamate (NAG) from glutamate and acetyl coenzyme A
NAGS specific activity ([2]; co-substrate acetyl coenzyme A): catalyzes formation of N-acetylglutamate (NAG) from glutamate and acetyl coenzyme A
